Measured values from US20100112048A1, “Dosage Regimen and Medicament For Reducing Risk of Onset or Progression of Dementia by Administration of Specific Vitamins and Nsaid” (priority 2006, published 2010).

What was measured:
[1] = test system: mortality of elderly Cache County participants; conditions: in vivo
Experimental: Also, to examine the effect of these constituents on differential mortality, logistic regression was used to estimate the relative risk of mortality over the course of follow-up among the 5 user groups. These analyses, were controlled for age, sex, education, and APOE genotype status. All analyses were performed using SAS statistical software package version 8.0.
Also, an analysis was effected to assess whether there was an increased risk of mortality among any of the user groups that might potentially bias the observed associations with cognitive performance over time.

[2] = test system: mortality of 39,876 healthy participants; conditions: cited from earlier work
mortality of the elderly = conditions: placebo-controlled trial in the elderly; cited from earlier work

Substance: vitamin E
- harm of vitamin E, subgroup analysis (in words) [1]: may only be harmful among elderly with prior cardiovascular disease
- cardiovascular mortality (in words) ([2]; healthy women): trend toward decreased cardiovascular mortality
- mortality vs placebo (in words) ([2]; monitored for over 10 years): no significant difference in mortality
- mortality associated with using vitamin E (in words) (mortality of the elderly): did not note any increased mortality
